For orientation: half-life means how long it takes for the measured level to halve. A lower half-life goes with rapid decline. The IC50 is the midpoint of a concentration-inhibition curve. As a reminder, the Papp B→A is the apparent permeability from the basolateral to the apical side of a cell layer. As a reminder, the Papp A→B is the apparent permeability from the apical to the basolateral side of a cell layer. For orientation: bioavailability means dose-corrected exposure relative to a reference, in per cent. Read a high bioavailability as much systemic uptake.

Data on one compound can be found in ChEMBL document CHEMBL4052642, “4-Methyl-6,7-dihydro-4H-triazolo[4,5-c]pyridine-Based P2X7 Receptor Antagonists: Optimization of Pharmacokinetic Properties Leading to the Identification of a Clinical Candidate” (J Med Chem, 2017).

Data set [1] has as its system Liver. Put plainly: Metabolic stability in human liver microsomes at 1 uM after 5 to 60 mins by LC-MS/MS analysis. It is filed as ADME, microsome. (Liver microsomes are vesicles of endoplasmic reticulum, rich in cytochrome P450 enzymes.)
Data set [2] in a line: Half life in beagle dog at 0.5 mg/kg, iv by LC-MS/MS analysis. It is filed as ADME, organism-based, Canis lupus familiaris. The note with it: in vivo.
Data set [3] is described as follows: Antagonist activity at P2X7 in dog whole blood assessed as inhibition of BzATP-induced IL-1beta release preincubated for 30 mins followed by BzATP addition measured after […] by ELISA. The note with it: Canis lupus familiaris. (In an ELISA, binding on a coated surface is turned into a signal by an enzyme label.)
The target in data set [4] is P2X2/P2X3 heterotrimeric receptor (Homo sapiens) (UniProt Q9UBL9+P56373). In words: Antagonist activity at P2X2/3 (unknown origin) assessed as inhibition of BzATP-induced calcium flux up to 10 uM preincubated for 30 mins followed by BzATP addition measured over 180 secs by FLIPR assay. It is filed as protein-complex assay. (In general: Calcium assays in cells follow changes in intracellular calcium, usually with a dye or a luminescent sensor.)

For data set [5], the target named is T1, P2X purinoceptor 7 (Mus musculus, UniProt Q9Z1M0). In words: Antagonist activity at P2X7 in mouse whole blood assessed as inhibition of BzATP-induced IL-1beta release preincubated for 30 mins followed by BzATP addition measured after […] by ELISA.
Data set [6] addresses P2X purinoceptor 3 (Homo sapiens) (UniProt P56373). Put plainly: Antagonist activity at P2X3 (unknown origin) assessed as inhibition of BzATP-induced calcium flux up to 10 uM preincubated for 30 mins followed by BzATP addition measured over 180 secs by FLIPR assay.
Data set [7] deals with Canis familiaris. Put plainly: Oral bioavailability in beagle dog at 2.5 mg/kg by LC-MS/MS analysis. It is filed as ADME, organism-based, Canis lupus familiaris. To be noted: in vivo.
A short description of data set [8]: Apparent permeability across basolateral to apical side in human Caco2 cells. It is filed as ADME, cell-based. To be noted: Caco-2.
A short description of data set [9]: Apparent permeability across apical to basolateral side in human Caco2 cells. To be noted: Caco-2. Type of data set: ADME, cell-based.
A short description of data set [10]: Clearance in Sprague-Dawley rat at 1 mg/kg, iv or 5 mg/kg, po by LC-MS/MS analysis. The note with it: in vivo. It is filed as ADME, organism-based.
The nature of data set [11]: Clearance in beagle dog at 0.5 mg/kg, iv or 2.5 mg/kg, po by LC-MS/MS analysis. It is filed as ADME, organism-based, Canis lupus familiaris. The note with it: in vivo.
Data set [12] in a line: Protein binding in rat brain at 5 uM after 5 hrs by equilibrium dialysis method. The note with it: read-out: PB (converted). Type of data set: ADME, tissue-based.
Data set [13] relates to Rattus norvegicus. Put plainly: Ex vivo receptor occupancy at P2X7 in Sprague-Dawley rat brain at 10 mg/kg, po after 24 hrs by autoradiography. Type of data set: functional.
A short description of data set [14]: Oral bioavailability in Sprague-Dawley rat at 5 mg/kg by LC-MS/MS analysis. To be noted: in vivo. It is filed as ADME, organism-based.
The nature of data set [15]: Volume of distribution at steady state in Sprague-Dawley rat at 1 mg/kg, iv or 5 mg/kg, po by LC-MS/MS analysis. It is filed as ADME, organism-based. To be noted: in vivo, read-out: Vdss.
A short description of data set [16]: Drug uptake in dog brain at 3 mg/kg, po after 168 hrs. Type of data set: ADME, organism-based, Canis lupus familiaris. The note with it: read-out: Drug uptake.
In data set [17] the target is T1, P2X purinoceptor 7. In words: Antagonist activity at mouse P2X7 assessed as inhibition of BzATP-induced calcium flux preincubated for 30 mins followed by BzATP addition measured over 180 secs by FLIPR assay.

Activity calls are given as the source filed them. No cut-off for these calls is given here.

T1 sequence (Q9Z1M0 whole entry): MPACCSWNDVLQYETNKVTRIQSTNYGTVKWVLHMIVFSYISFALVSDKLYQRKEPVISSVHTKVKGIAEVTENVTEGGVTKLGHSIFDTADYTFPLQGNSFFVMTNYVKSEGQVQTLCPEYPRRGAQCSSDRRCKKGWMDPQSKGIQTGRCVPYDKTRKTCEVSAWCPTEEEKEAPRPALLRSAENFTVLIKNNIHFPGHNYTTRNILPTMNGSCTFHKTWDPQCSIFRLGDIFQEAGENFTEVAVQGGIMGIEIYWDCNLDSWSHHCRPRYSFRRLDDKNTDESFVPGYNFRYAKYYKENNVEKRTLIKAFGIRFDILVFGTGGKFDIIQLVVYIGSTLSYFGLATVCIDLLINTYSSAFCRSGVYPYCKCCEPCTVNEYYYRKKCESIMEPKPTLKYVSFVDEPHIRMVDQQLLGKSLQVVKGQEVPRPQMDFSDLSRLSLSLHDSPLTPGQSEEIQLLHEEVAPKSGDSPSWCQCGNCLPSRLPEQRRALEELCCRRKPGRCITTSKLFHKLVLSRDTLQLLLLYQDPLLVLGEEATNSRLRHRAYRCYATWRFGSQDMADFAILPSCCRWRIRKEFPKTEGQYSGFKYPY
P2X purinoceptor 3 (Homo sapiens), sequence (P56373 whole entry): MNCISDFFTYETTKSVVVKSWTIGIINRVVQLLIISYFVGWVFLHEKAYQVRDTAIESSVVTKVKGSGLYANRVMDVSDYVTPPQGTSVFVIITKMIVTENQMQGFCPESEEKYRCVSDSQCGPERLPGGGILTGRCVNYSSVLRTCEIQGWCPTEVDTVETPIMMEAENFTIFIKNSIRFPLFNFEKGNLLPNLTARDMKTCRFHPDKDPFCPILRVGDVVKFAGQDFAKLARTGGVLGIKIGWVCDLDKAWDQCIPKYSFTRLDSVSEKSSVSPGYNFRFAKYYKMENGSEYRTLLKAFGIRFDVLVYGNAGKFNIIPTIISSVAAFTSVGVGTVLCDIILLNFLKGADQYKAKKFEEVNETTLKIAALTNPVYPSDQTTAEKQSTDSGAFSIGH

As to `C[C@@H]1c2nnn(-c3ncc(F)cn3)c2CCN1C(=O)c1cccc(C(F)(F)F)c1Cl` [JNJ-54175446], in data set [1], the Stability entry was “Stable”. In addition, the half-life in [2] is 32 h. Besides, the IC50 in data set [3] was 0.158 µM; in data set [5], 0.0316 µM; in data set [17], 0.0158 µM. The inhibition result in [4] and in data set [6] was “inactive” throughout. The same compound showed a F in [7] of 164%. The Papp B→A in [8] came to 488 nm/s. In addition, the apparent permeability from apical to basolateral (Papp A→B) in data set [9] stood at 753 nm/s. Further, the values for the clearance in [10] and in [11] were 0.174 L/h/kg and 0.054 L/h/kg, respectively. Further, the fraction unbound at 5 h, 5 µM in [12] is 0.051. In addition, the Occ in [13] is greater than 80%. Further, the bioavailability in data set [14] was determined as 96%. For the same compound, in data set [15], the Vd amounted to 2.1 L/kg. The concentration at 168 h in data set [16] was no more than 0.5 µM.
